Measured values from patent publication US5134073A, “Microbiologically produced N-acetyl-2,3-didehydroleucine acylase” (Degussa Aktiengesellschaft, priority 1989, dated 1992).
Where “and” joins values, the source holds several entries; their conditions need not be identical. Identical values can stand only once. Like-named read-outs stand apart in the source and are kept apart here. Where a SMILES comes first, the peptide text is derived from it.

Experiments:
[1] = test system: N-acetyldehydroleucine acylase; assay: Influence of additive substances on the splitting of N-acetyldehydroleucine under standard conditions; assay type: biochemical, Zoogloea ramigera
Protocol: The mixing together of the batches, their storage and the taking of specimens took place under sterile conditions. The standard conditions for the enzyme test were:
20 mM N-Acetyldehydroleucine

[2] = test system: N-acetyldehydroleucine acylase; assay: Hydrolysis of other compounds by the acylase (TLC / amino acid analyzer); assay type: biochemical, Zoogloea ramigera; conditions: for rel. activity (%): 50 mM test substrate, 0.1 M tris/HCl pH 9, 25° C., hydrolysis rate with N-acetyldehydroleucine = 100%
Protocol: A qualitative check was performed for 81 compounds to see whether they are accepted as substrate by the acylase. The test batches contained:
After 16 and 40 hours incubation at 25° C., specimens were taken from the batches, most of which specimens were analyzed in comparison to substrate standards by means of thin-layer chromatography (70% (v/v) ethanol as mobile solvent). The detection took place with ninhydrin spray reagent. A few specimens were tested in addition or alternatively with the amino acid analyzer.
The amino acids produced from the amino acid amides by means of the action of acylase were detected quantitatively with the amino acid analyzer.

[3] = test system: N-acetyldehydroleucine acylase; assay: Acylase activity versus concentration of N-acetyldehydroamino acids (kinetic data); assay type: biochemical, Zoogloea ramigera; conditions: glycine, 0.1 M, pH 9, 30° C.
Protocol: The activity of the acylase was determined under standard conditions (cf. Example 8a)) with various N-acetyldehydroamino acids in concentrations of 0.1 to 300 mM. A second series of measurements with N-acetyldehydroleucinein the above-indicated concentration range was placed in 0.1 M tris/phosphoric acid buffer.
Reaction conditions: 0.1 M glycine, pH 9, 30° C.
Adaptation to the equation v = Vmax. · S/(KM + S +

ADL acylase = assay: Stability of the acylase in the presence of different anions; assay type: physicochemical, Zoogloea ramigera; conditions: sodium salt 0.5 M in 50 mM glycine pH 11, 20° to 25° C., raw extract; 500000 µM
Protocol: The influence of different anions on the stability of ADL acylase was investigated. Raw extract which had been compounded with glycerin to 43.5% (w/v) was diluted 1 : 10 with 0.5 molar solutions of various sodium salts in 50 mM glycine (pH 11) and stored at room temperature (20° to 25° C.). Specimens were taken from time-to-time and their enzymatic activity measured under standard conditions, as described in Example 8a).

Compound | % Residual activity ([1]; inhibitor 1 mM) | % Residual activity ([1]; inhibitor 10 mM) | rel. activity (%) [2] | other results
O[C@H](CS)[C@H](O)CS (racemic) [Dithiothreitol] | 103% | 58% | – | –
CC(=O)NC(CC(C)C)C(=O)O (racemic) [N-acetyl-D,L-leucine] | – | – | 0% | –
CC(C)CC(NC(=O)c1ccccc1)C(=O)O (racemic) [N-benzoyl-D,L-leucine] | – | – | 0% | –
COC(=O)NC(CC(C)C)C(=O)O (racemic) [N-methoxycarbonyl-D,L-leucine] | – | – | 0% | –
COC(=O)NC(C(=O)O)C(C)C (racemic) [N-methoxycarbonyl-D,L-valine] | – | – | 0% | –
CNC(CC(C)C)C(=O)O (racemic) [N-methyl-D,L-leucine] | – | – | 0% | –
C=C(NC(C)=O)C(=O)O [ADA, 2-acetylamino acrylic acid] | – | – | – | % Vmax [3]: 90%; Km [3]: 6.68 mM; Substrate specificity: hydrolysis by the acylase [2]: hydrolyzes
CC(=O)O [Acetate] | – | – | – | % Residual activity after 3 days (ADL acylase): 86%; % Residual activity after 6 days (ADL acylase): 81%; % Residual activity after 21 days (ADL acylase): 6%
c1ccc(-c2ccccn2)nc1 [Bipyridine] | 91% | 70% | – | –
[Ca+2].[Cl-].[Cl-] [CaCl2] | – | 93% | – | –
Cl [Chloride] | – | – | – | % Residual activity after 3 days (ADL acylase): 35%; % Residual activity after 6 days (ADL acylase): 0%; % Residual activity after 21 days (ADL acylase): 0%
O=C(O)CC(O)(CC(=O)O)C(=O)O [Citrate] | 99% | 84% | – | –
[Cl-].[Cl-].[Co+2] [CoCl2] | 91% | 85% | – | –
O=S(=O)([O-])[O-].[Cu+2] [CuSO4] | 87% | 83% | – | –
N[C@@H]1CON=C1O [Cycloserine] | 111% | 105% | – | –
C[C@@H](N)C(N)=O [D-alanine amide] | – | – | 0.46% | –
CC(C)C[C@@H](N)C(N)=O [D-leucine amide] | – | – | 3.82% | Substrate specificity: hydrolysis by the acylase [2]: hydrolyzes
NC(=O)[C@H](N)Cc1c[nH]c2ccccc12 [D-tryptophane amide] | – | – | – | Substrate specificity: hydrolysis by the acylase [2]: hydrolyzes
O=C(O)CN(CCN(CC(=O)O)CC(=O)O)CC(=O)O [EDTA] | – | – | – | % Residual activity [1]: 95%

Compound | % Residual activity ([1]; inhibitor 1 mM) | % Residual activity ([1]; inhibitor 10 mM) | rel. activity (%) [2] | other results
O=CO [Formate] | – | – | – | % Residual activity after 3 days (ADL acylase): 76%; % Residual activity after 6 days (ADL acylase): 63%; % Residual activity after 21 days (ADL acylase): 2%
N[C@@H](CCC(=O)N[C@@H](CS)C(=O)NCC(=O)O)C(=O)O [Glutathione reduced] | – | – | – | % Residual activity [1]: 95%
CC(C)C[C@H](NC(=O)CN)C(=O)O [Glycyl-L-leucine] | – | – | 0% | –
[Cl][Hg][Cl] [HgCl2] | 84% | 70% | – | –
C[C@H](N)C(N)=O [L-alanine amide] | – | – | 0.35% | –
C[C@H](N)C(=O)NCC(=O)O [L-alanyl glycine] (H-Ala-Gly-OH) | – | – | 0% | –
CC(C)C[C@H](NC(=O)[C@H](C)N)C(=O)O [L-alanyl-L-leucine] (H-Ala-Leu-OH) | – | – | 0% | –
C[C@H](N)C(=O)N[C@@H](Cc1ccccc1)C(N)=O [L-alanyl-L-phenylalanine amide] | – | – | 0% | –
CC(C)C[C@H](N)C(N)=O [L-leucine amide] | – | – | 6.80% | Substrate specificity: hydrolysis by the acylase [2]: hydrolyzes
CC(C)C[C@H](N)C(=O)NCC(=O)O [L-leucyl glycine] (H-Leu-Gly-OH) | – | – | 0% | –
CSCC[C@H](N)C(N)=O [L-methionine amide] | – | – | 4.69% | Substrate specificity: hydrolysis by the acylase [2]: hydrolyzes
NC(=O)[C@@H](N)Cc1c[nH]c2ccccc12 [L-tryptophane amide] | – | – | 20.4% | Substrate specificity: hydrolysis by the acylase [2]: hydrolyzes
N[C@@H](Cc1c[nH]c2ccccc12)C(=O)NCC(=O)O [L-tryptophyl glycine] (H-Trp-Gly-OH) | – | – | 0% | –
OCCS [MeSH, mercaptoethanol] | 93% | 99% | – | % Residual activity ([1]; inhibitor 100 mM): 81%
[Cl-].[Cl-].[Mg+2] [MgCl2] | 95% | 88% | – | –
[Cl][Mn][Cl] [MnCl2] | 99% | 87% | – | –
CC(=O)NCC(=O)O [N-acetyl glycine] | – | – | 0% | –
CC(=O)N[C@@H](CC(C)C)C(=O)O [N-acetyl leucine] | – | – | – | Substrate specificity: hydrolysis by the acylase [2]: not
CC(=O)N[C@H](C(=O)O)C(C)C [N-acetyl valine] | – | – | – | Substrate specificity: hydrolysis by the acylase [2]: not

Compound | % Residual activity ([1]; inhibitor 1 mM) | % Residual activity ([1]; inhibitor 10 mM) | rel. activity (%) [2] | other results
CC(=O)N[C@@H](C)C(=O)N[C@H](C(=O)O)C(C)C [N-acetyl-L-alanyl-L-valine] (Ac-Ala-Val-OH) | – | – | 0% | –
CC(=O)N[C@@H](Cc1ccccc1)C(=O)O [N-acetyl-L-phenylalanine] | – | – | 0% | –
NC(=O)N[C@@H](Cc1ccccc1)C(=O)O [N-carbamoyl-L-phenylalanine] | – | – | 0% | –
CC(C)[C@H](NC(N)=O)C(=O)O [N-carbamoyl-L-valine] | – | – | 0% | –
CN[C@@H](CCC(=O)O)C(=O)O [N-methyl-L-glutamic acid] | – | – | 0% | –
[N-]=[N+]=[N-].[Na+] [NaN3] | 105% | 103% | – | –
CN(C)C(=O)Oc1cccc([N+](C)(C)C)c1 [Neostigmine] | 102% | 82% | – | % Residual activity ([1]; inhibitor 100 mM): 0%
O=S(=O)(F)Cc1ccccc1 [PMSF, phenylmethane sulfonyl fluoride] | – | – | – | % Residual activity ([1]; inhibitor 0.0001 mM): 10%; % Residual activity ([1]; inhibitor 0.01 mM): 0%; Inhibition of the acylase ([1]; phenylmethane sulfonyl fluoride still in micromolar concentration): sharply inhibit; Influence of inhibitors on the acylase ([1]; phenylmethane sulfonylfluoride: 0.001 mM): exert an inhibitory action
c1cnc2c(c1)ccc1cccnc12 [Phenanthroline] | 94% | 52% | – | –
NNC(N)=O [Semicarbazide] | 113% | 93% | – | –
O=S(=O)(O)O [Sulfate] | – | – | – | % Residual activity after 3 days (ADL acylase): 89%; % Residual activity after 6 days (ADL acylase): 94%; % Residual activity after 21 days (ADL acylase): 15%
[Cl-].[Cl-].[Zn+2] [ZnCl2] | 95% | 82% | – | –
NC(=O)CI [iodine acetamide] | 104% | 74% | – | –
O=C(O)CI [iodine acetate] | – | – | – | % Residual activity [1]: 76% and 49%
N=C(N)c1ccc(N)cc1 [pABA, paraaminobenzamidine] | – | 89% | – | % Residual activity ([1]; inhibitor 100 mM): 54%; % Residual activity ([1]; inhibitor 200 mM): 0%
O=C(O)c1cc[c]([Hg][OH])cc1 [pCMB, parahydroxy mercury benzoate] | 104% | 98% | – | –
O=C(O)c1cc[c]([Hg][OH])cc1 [pOHMB, parahydroxy mercuric benzoate] | 93% | 91% | – | –
NC(=O)[C@@H](N)Cc1c[nH]c2ccccc12 [tryptophane amide] | – | – | – | Substrate specificity: hydrolysis by the acylase [2]: split with a reaction rate on the order like that achieved with N-acetyldehydroamino acids
Phosphate | – | – | – | % Residual activity after 3 days (ADL acylase): 96%; % Residual activity after 6 days (ADL acylase): 105%; % Residual activity after 21 days (ADL acylase): 27%
